Here are results for one compound from ChEMBL document CHEMBL5543108, “Structure-based design and synthesis of BML284 derivatives: A novel class of colchicine-site noncovalent tubulin degradation agents” (Eur J Med Chem, 2024).

The structures appear in SMILES notation.

One data set concerns A549/TR. The data set is described as follows: Antiproliferative activity against paclitaxel resistant human A549T cells assessed as reduction in cell viability measured after 72 hrs. Type of data set: functional, cell-based.
A short description of data set [1]: Selectivity ratio of IC50 for human MCF7ADR cells to IC50 for human MCF7. The data set is classed as toxicity.
Data set [2] relates to A2780/Taxol. The data set is described as follows: Induction of cell cycle arrest in human A2780T cells assessed as accumulation of cells at G0/G1 phase at 100 nM measured after 24 hrs by propidium iodide staining based analysis (reference value: 46.141%). The data set is classed as functional.
The subject of data set [3] is A2780/Taxol. The data set is described as follows: Induction of cell cycle arrest in human A2780T cells assessed as accumulation of cells at S phase at 10 nM measured after 24 hrs by propidium iodide staining based analysis (reference value: 29.73%). Type of data set: functional.

As for `COc1cccc(-c2cc(NCc3ccc4[nH]ccc4c3)nc(N)n2)c1`, the IC50 – broadly, the point on the concentration scale where inhibition reaches its midpoint – in the data set with A549/TR worked out at 37 nM. Also, the “Ratio IC50” value in data set [1] was determined as 1.6. Also, the values for the Activity in the data set on A2780/Taxol [2] and in the data set on A2780/Taxol [3] were 7.72% and 32.91%, respectively.
